Tests used:
[1] = system: IEC-18 cells; assay: Glucose uptake with and without PKC zeta inhibitor ZIP, IEC-18 cells; format: cell-based; settings: 100 nM
[2] = system: IEC-18 cells; assay: Western blot of PKC and GLUT1 activation over time, IEC-18 cells; format: cell-based; settings: prostratin 2 μM; for activities of PKC zeta and GLUT1: ingenol 0.1 μM, 0, 15 and 60 minutes
Experimental: After treatment of IEC-18 cells with each of prostratin (2 μM) and ingenol (0.1 μM) for 0, 15, and 60 minutes, the expression of PKC and GLUT1 proteins was analyzed by Western blotting.

[3] = system: IEC-6 cells; assay: Western blot of GLUT transporters after treatment, IEC-6 cells; format: cell-based; settings: for GLUT1 phosphorylation: 30, 100 and 300 nM, 30 minutes, Western blot; for expression of p-GLUT1 and GLUT1: compared to Na/K ATPase
Experimental: (§1) For culture of IEC-6 cells (ATCC CRL-1592) and IEC-18 cells (ATCC CRL-1589), which are intestinal epithelial cells, the cells were cultured using Dulbecco's modified Eagle medium (DMEM) supplemented with 10% fetal bovine serum (FBS) and penicillin-streptomycin at 37° C. in a humidified atmosphere containing 10% CO2 and 90% air, and were subcultured every 3 to 4 days. […] When the cell density reached 1.5×10^5 cells/cm^2 after 6 days, the cultures were collected and used. Prostratin was purchased from Sigma-Aldrich (Cat. No. P0077) and used. Ingenol was purchased from Sigma-Aldrich (Cat. No. SML1318) and used. IEC-6 cells and IEC-18 cells were treated with each of prostratin and ingenol at 30 nM, 100 nM, and 300 nM for 30 minutes, cell lysates were collected, and protein expression levels thereof were analyzed by Western blotting. Western blot analysis was performed as follows. Total cell protein lysates were prepared and subjected to Western blot analysis according to standard procedures. Briefly, cells were chilled on ice, washed twice with ice-cold phosphate-buffered saline, and lysed in buffer containing 1 mM. phenylmethylsulfonyl fluoride and lx protease inhibitor (Sigma-Aldrich). Protein concentration was measured with a Bradford assay kit (Bio-Rad, Hercules, CA, USA). Equal amounts of protein from the cell lysates were resolved by sodium dodecyl sulfate polyacrylamide gel electrophoresis and transferred to membranes which were then incubated with anti-PKCα (Cell Signaling Technology, USA), anti-PKCδ (Cell Signaling Technology, USA), anti-PKCζ (Cell Signaling Technology, USA), anti-p-GLUT1 (Abcam, GB), anti-GLUT1 (Abcam, GB) and anti-GLUT2 (Novus Biological, USA) as primary antibodies overnight at 4° C. The blots were washed 3 times with TBST (Tris-buffered saline containing 0.05% Tween 20) and then incubated with horseradish peroxidase (HRP)-conjugated secondary antibodies for 1 hour at 25° C. As the secondary antibodies, donkey anti-rabbit IgG-HRP antibody (1:5000, Santa Cruz) and donkey anti-mouse IgG-HRP antibody (1:5000, Santa Cruz) were used. Immunoreactivity was detected with SuperSignal West Pico Chemiluminescent Substrate (Thermo Fisher Scientific, MA, USA).

[4] = system: db/db mice; assay: Body weight in diabetic model mice, daily intraperitoneal injection for 40 days; format: in vivo
Experimental: Each of prostratin (0.5 mg/kg) and ingenol (1 μg/kg) was intraperitoneally injected daily for 40 days into db/db mice (Jackson Laboratory), known as a representative diabetes model due to deficiency of the leptin receptor, and then the body weight of each mouse was measured.

[5] = system: db/db mice; assay: Intraperitoneal glucose tolerance test (IPGTT) in diabetic model mice on day 17; format: in vivo
Experimental: Each of prostratin (0.5 mg/kg) and ingenol (1 μg/kg) was intraperitoneally injected daily for 40 days into db/db mice (Jackson Laboratory), known as a representative diabetes model due to deficiency of the leptin receptor, and then the body weight of each mouse was measured. On day 17 after drug administration, an intraperitoneal glucose tolerance test (IPGTT) was performed. […] In the group to which 1 μg/kg of ingenol was administered, the glucose improvement effect appeared at 240 minutes after glucose administration.

[6] = system: IEC-18 cells; assay: Intracellular glucose (2-DG) uptake, IEC-18 cells; format: cell-based; settings: 100 nM
Experimental: (§2) IEC-6 cells and IEC-18 cells were treated with each of prostratin and ingenol (100 nM) for 10 minutes, and then uptake of 2-deoxy-D-glucose (2-DG) in the collected cell lysates was analyzed. By measuring the glucose concentration, changes in glucose uptake (2-DG uptake) by treatment with each of prostratin and ingenol were determined. The amount of glucose was measured after treatment with each of prostratin and ingenol in a low-concentration glucose medium and serum-free DMEM for 24 hours. Glucose levels in the IEC-6 and IEC-18 cells were detected using a Glucose Assay Kit (Cayman Chemical) according to the manufacturer's instructions. Absorbance signals were measured with a Gen5 spectrophotometer (BioTek, Winooski, VT, USA).

[7] = system: IEC-6 cell line; assay: 2DG uptake after PKC siRNA transfection; format: cell-based; settings: prostratin 1 μM or ingenol 100 nM
Experimental: In order to identify which PKC subtypes induce increased glucose uptake (2DG uptake) in IEC cells by treatment with each of prostratin and ingenol, the IEC-6 cell line was transfected with siRNA for each of conventional PKC (PKCα), novel PKC ([…]), and atypical PKCs (PKCζ and […]) as described in Example 7. After 48 hours, the cells were treated with prostratin (1 μM) or ingenol (100 nM), and 2DG uptake therein was analyzed.

[8] = system: C57BL6 mice; assay: IP glucose tolerance test after single subcutaneous injection; format: in vivo; settings: 2 g/kg glucose
Experimental: After 12 C57BL6 mice were fasted for 12 hours, fasting blood glucose was measured by performing an intraperitoneal glucose test. Thereafter, ingenol (4 μg/kg) and prostratin (1 mg/kg) was injected subcutaneously once into the ingenol-administered group (4 mice) and the prostratin-administered group, respectively, and 2 g of glucose per kg of mouse (2 g/kg glucose) was diluted in physiological saline and intraperitoneally administered to each mouse. Thereafter, an IP glucose tolerance test was performed at 15 minutes, 30 minutes, 60 minutes, 90 minutes, and 120 minutes.

[9] = system: HEK293; assay: Western blot of PKC zeta, p-GLUT1 and GLUT1 with ingenol, HEK293 cells; format: cell-based; settings: vs empty vector negative control
Experimental: (§3) Transfected cell lines were generated by transfection such that PKC zeta was transiently overexpressed in IEC-6 cells, IEC-18 cells, and HEK293 (ATCC CRL-1573) cells. A rat PKC zeta-expressing plasmid (Korea Gene Bank) was subcloned into pCDNA3.1 (Addgene, USA). […] Cells were transfected with the expression plasmid using Polyjet transfection reagent (SignaGen) according to the manufacturer's instructions. Transfected cells were cultured for 48 hours at 37° C. before lysis and treated with ingenol (0.1 μM). Cell lysates were collected for the empty vector-infected cell group as a control group, the PKC zeta-transfected cell group, the wild-type cell group treated with ingenol, and the transfected cell group treated with ingenol, and subjected to Western blotting. In Western blotting, Na/K ATPase was used as a membrane loading control.

[10] = system: IEC-6 cells; assay: Glucose uptake with and without PKC zeta inhibitor ZIP, IEC-6 cells; format: cell-based; settings: 100 nM
[11] = system: IEC-18 cells; assay: Western blot of GLUT transporters after treatment, IEC-18 cells; format: cell-based; settings: for GLUT1 phosphorylation: 30, 100 and 300 nM, 30 minutes, Western blot; for expression of p-GLUT1 and GLUT1: compared to Na/K ATPase
Experimental: as §1

[12] = system: IEC-6 cells; assay: Intracellular glucose (2-DG) uptake, IEC-6 cells; format: cell-based; settings: 100 nM
Experimental: as §2

[13] = system: IEC-18 cells; assay: Western blot of PKC zeta, p-GLUT1 and GLUT1 with ingenol, IEC-18 cells; format: cell-based; settings: ingenol 0.1 μM, vs empty vector negative control
Experimental: as §3

[14] = system: IEC-6 cells; assay: Western blot of PKC zeta, p-GLUT1 and GLUT1 with ingenol, IEC-6 cells; format: cell-based; settings: ingenol 0.1 μM, vs empty vector negative control
Experimental: as §3

[15] = system: human pancreatic tumors; settings: orally administered; cited from earlier work
[16] = system: IEC-6 cell line; assay: Western blot of p-GLUT1 after PKC siRNA transfection and prostratin treatment; format: cell-based; settings: prostratin 1 μM
Experimental: To identify which PKC subtypes induce GLUT1 activation by each of prostratin and ingenol, the IEC-6 cell line was transfected with 50 nM of siRNA for each of conventional PKC (PKCα), novel PKC ([…]), and atypical PKCs (PKCζ and […]) using RNAiMax (Invitrogen). After 48 hours, the cells were treated with prostratin (1 μM), and total protein was extracted and subjected to Western blotting. The siRNA sequences used are as follows.

[17] = system: db/db mice; assay: Electron microscopy of apical membrane of jejunum lumen of diabetic model mice; format: in vivo; settings: 0.5 mg/kg for 1 month, electron microscope
[18] = system: C57BL6 mice; assay: IP glucose tolerance test after 2 weeks of administration by osmotic pump; format: in vivo; settings: 0.5 mg/kg and 1 mg/kg for 2 weeks, 2 g/kg glucose
Experimental: Prostratin was administered to C57BL6 mice at concentrations of 0 mg/kg, 0.5 mg/kg, and 1 mg/kg for 2 weeks using an osmotic pump, followed by fasting for 12 hours. Then, 2 g of glucose per kg of mouse (2 g/kg glucose) was diluted in physiological saline and intraperitoneally administered to each mouse. Thereafter, an IP glucose tolerance test was performed at 15 minutes, 30 minutes, 60 minutes, 90 minutes, and 120 minutes.

[19] = system: db/db mice; assay: Immunohistochemical staining of PKC zeta in small intestine of diabetic model mice; format: in vivo; settings: 0.5 mg/kg for 1 month
Experimental: After administration of prostratin (0.5 mg/kg) or vehicle to db/db mice for 1 month, the small intestine was harvested, and the duodenum, jejunum, and ileum were fixed with formalin, subjected to immunohistochemical staining with anti-PKC zeta antibody (Abcam, USA), and imaged with an optical microscope at 100× and 400× magnifications.

[20] = system: db/db mice; assay: 18FDG absorption and excretion in intestines of diabetic model mice; format: in vivo; settings: 0.5 mg/kg for 1 month
Experimental: The intestines of db/db mice (Jackson Laboratory) to which 0.5 mg/kg of prostratin had been administered for 1 month were harvested and radiographed for 18FDG (fluorodeoxyglucose, DuChemBio). 18FDG was purchased from DuChemBio and 200 μCi was injected into each mouse via the tail vein. In addition, 18FDG in a fecal sample obtained by washing the harvested small intestine with 5 mL of PBS was measured, and 18FDG uptake of the duodenum, jejunum, and ileum of the small intestine was measured with a gamma counter.

[21] = atypical PKC (PKCζ and PKC↓)-knockdown group

C/C=C(/C)C(=O)O[C@H]1C(C)=C[C@]23C(=O)[C@@H](C=C(CO)[C@@H](O)[C@]12O)[C@H]1[C@@H](C[C@H]3C)C1(C)C [ingenol-3-angelate]
6-phosphate glucose in the cells [1]: increased | activities of PKC zeta and GLUT1 [2]: increased | GLUT1 phosphorylation [3]: promoted | expression of p-GLUT1 and GLUT1 [3]: increased | weight loss ([4]; ingenol 1 μg/kg i.p. daily, increased to 2 μg/kg on day 28, day 30): showed statistical significance | glucose improvement effect (IPGTT) ([5]; ingenol 1 μg/kg, at 240 minutes after glucose administration): appeared | intracellular glucose (2-DG) uptake [6]: increased | 2DG uptake [7, 21]: not increased | 2DG uptake ([7]; negative control group (siNeg)): increased | glucose metabolism (IP glucose tolerance test) compared to negative control ([8]; ingenol 4 μg/kg subcutaneously once): improved | GLUT1 translocation [9]: translocated | PKC zeta activation and translocation to the cell membrane [9]: activated and translocated to the cell membrane | 6-phosphate glucose in the cells [10]: increased | GLUT1 phosphorylation [11]: promoted | expression of p-GLUT1 and GLUT1 [11]: increased | intracellular glucose (2-DG) uptake [12]: increased | GLUT1 translocation [13]: translocated | PKC zeta activation and translocation to the cell membrane [13]: activated and translocated to the cell membrane | GLUT1 translocation [14]: translocated | PKC zeta activation and translocation to the cell membrane [14]: activated and translocated to the cell membrane

CC(=O)O[C@@]12C[C@@H](C)[C@@]3(O)[C@@H](C=C(CO)C[C@]4(O)C(=O)C(C)=C[C@@H]34)[C@@H]1C2(C)C [prostratin]
effect on human pancreatic tumors [15]: inhibited | expression of GLUT1 (p-GLUT1) ([16]; negative control group (siNeg)): increased | expression of GLUT1 (p-GLUT1) ([16]; siRNA for atypical PKCs (PKCζ and PKC↓)): did not increase | 6-phosphate glucose in the cells [1]: increased | translocation of PKC and GLUT1 to the cell membrane, prostratin compared with ingenol ([2]; ingenol 0.1 μM): more rapidly translocated | activities of PKC zeta and GLUT1 [2]: increased | glycocalyx near the microvilli of the jejunum vs vehicle [17]: secreted more | number of mitochondria in the small intestine cells [17]: increased | GLUT1 phosphorylation [3]: promoted | expression of p-GLUT1 and GLUT1 [3]: increased | weight loss compared to vehicle group ([4]; prostratin 0.5 mg/kg i.p. daily, on and after day 11): showed statistical significance | glucose improvement (IPGTT) vs vehicle group ([5]; prostratin 0.5 mg/kg, entire period of 30 to 240 minutes): superior to that in the control group | intracellular glucose (2-DG) uptake [6]: increased | area values under the glucose change curve for 2 hours [18]: improved | 2DG uptake [7, 21]: not increased | 2DG uptake ([7]; negative control group (siNeg)): increased | PKC zeta staining in the duodenum vs vehicle [19]: no significant difference | location of PKC zeta in the jejunum and ileum [19]: tended to be concentrated in the apical membrane of the lumen | glucose metabolism (IP glucose tolerance test) compared to Vehicle ([8]; prostratin 1 mg/kg subcutaneously once, at 30 and 60 minutes): significantly improved | 6-phosphate glucose in the cells [10]: increased | GLUT1 phosphorylation [11]: promoted | expression of p-GLUT1 and GLUT1 [11]: increased | glucose absorption in duodenum, jejunum and ileum (18FDG, gamma counter) [20]: more than doubled | glucose absorption in the small intestine (18FDG radiographs) vs vehicle group [20]: significantly higher | glucose excretion in the fecal samples (18FDG) [20]: higher | intracellular glucose (2-DG) uptake [12]: increased
